System: ryanodine receptors

- caffeine-induced Ca++ release (1.5 mM caffeine + 20 mM dantrolene, 5 minutes dantrolene pretreatment, retinal ganglion cells, FIG. 1 trace 2): blocked
- caffeine effect after washout (washout of dantrolene with 12.5 mM caffeine alone, FIG. 1 trace 3): recovered partially
SMILES: O=C1CN(/N=C/c2ccc(-c3ccc([N+](=O)[O-])cc3)o2)C(O)=N1 [dantrolene, Dantrolene]

From patent US20070196856A1, “Methods of determining activity of ryanodine receptor modulators” (Allergan, Inc., priority 2006, published 2007)
